Data on one molecule can be found in article PMC5218480 (PLoS ONE, 2017).

The assay concerns MV-4-11 cells. The assay is described as follows: Gene expression microarray analysis (Affymetrix PrimeView) and GSEA. In kind it is cell-based, human. Details: RFU PODN (11730768_x_at) / Fold change /veh PODN (11730768_x_at) / RFU LINC00158 (11744669_a_at) / Fold change /veh LINC00158 (11744669_a_at) / RFU DUSP10 (11751237_a_at) / Fold change /veh DUSP10 (11751237_a_at) / RFU ID3 (11757404_x_at) / Fold change /veh ID3 (11757404_x_at) / RFU PLEKHG5 (11737974_s_at) / Fold change /veh PLEKHG5 (11737974_s_at) / RFU LRRC4B (11730491_at) / Fold change /veh LRRC4B (11730491_at) / RFU GIMAP4 (11747438_a_at) / Fold change /veh GIMAP4 (11747438_a_at) / RFU KRT8 (11758183_x_at) / Fold change /veh KRT8 (11758183_x_at) / RFU CNN1 (11734310_a_at) / Fold change /veh CNN1 (11734310_a_at) / RFU VPS37D (11726825_at) / Fold change /veh VPS37D (11726825_at) / RFU C10orf10 (11716522_x_at) / Fold change /veh C10orf10 (11716522_x_at) / RFU KIR2DL2 /// KIR2DL4 /// KIR2DL5A /// KIR2DL5B /// KIR2DS1 /// KIR2DS2 /// KIR2DS3 /// KIR2DS4 /// KIR3DL3 /// KIR3DL3 /// KIR3DS1 (11738374_at) / Fold change /veh KIR2DL2 /// KIR2DL4 /// KIR2DL5A /// KIR2DL5B /// KIR2DS1 /// KIR2DS2 /// KIR2DS3 /// KIR2DS4 /// KIR3DL3 /// KIR3DL3 /// KIR3DS1 (11738374_at) / RFU C1QL1 (11718748_at) / Fold change /veh C1QL1 (11718748_at) / RFU TMPRSS4 (11747572_a_at) / Fold change /veh TMPRSS4 (11747572_a_at) / RFU HAMP (11756126_x_at) / Fold change /veh HAMP (11756126_x_at) / RFU RNFT2 (11725882_a_at) / Fold change /veh RNFT2 (11725882_a_at) / RFU NR4A2 (11747474_a_at) / Fold change /veh NR4A2 (11747474_a_at) / RFU ABCC12 (11746883_a_at) / Fold change /veh ABCC12 (11746883_a_at) / RFU TMEM136 (11760407_x_at) / Fold change /veh TMEM136 (11760407_x_at) / RFU CLDN22 /// WWC2 (11732394_at) / Fold change /veh CLDN22 /// WWC2 (11732394_at) / RFU HLA-DPB1 (11760878_x_at) / Fold change /veh HLA-DPB1 (11760878_x_at) / RFU SPINT1 (11716480_a_at) / Fold change /veh SPINT1 (11716480_a_at) / RFU GAP43 (11754022_s_at) / Fold change /veh GAP43 (11754022_s_at) / RFU A4GNT (11735810_at) / Fold change /veh A4GNT (11735810_at) / RFU PRB3 (11715151_x_at) / Fold change /veh PRB3 (11715151_x_at) / RFU TUBB4B (11761932_at) / Fold change /veh TUBB4B (11761932_at) / RFU CAPN14 (11732068_a_at) / Fold change /veh CAPN14 (11732068_a_at) / RFU TMCC2 (11721928_a_at) / Fold change /veh TMCC2 (11721928_a_at) / RFU IRGQ (11745062_a_at) / Fold change /veh IRGQ (11745062_a_at) / RFU FAM174B (11720279_a_at) / Fold change /veh FAM174B (11720279_a_at) / RFU TMPRSS4 (11748680_a_at) / Fold change /veh TMPRSS4 (11748680_a_at) / RFU FAM212B (11763350_a_at) / Fold change /veh FAM212B (11763350_a_at) / RFU PLEKHG5 (11743358_a_at) / Fold change /veh PLEKHG5 (11743358_a_at) / RFU ZSCAN30 (11745921_a_at) / Fold change /veh ZSCAN30 (11745921_a_at) / RFU CMKLR1 (11741424_a_at) / Fold change /veh CMKLR1 (11741424_a_at) / RFU LOC101060620 /// MAPK8IP1 (11723275_at) / Fold change /veh LOC101060620 /// MAPK8IP1 (11723275_at) / RFU SPTSSB (11747773_x_at) / Fold change /veh SPTSSB (11747773_x_at) / RFU PRSS12 (11739890_at) / Fold change /veh PRSS12 (11739890_at) / RFU BIN1 (11741810_x_at) / Fold change /veh BIN1 (11741810_x_at) / RFU WNT11 (11732464_a_at) / Fold change /veh WNT11 (11732464_a_at) / RFU C10orf10 (11716521_a_at) / Fold change /veh C10orf10 (11716521_a_at) / RFU C5orf56 (11738089_at) / Fold change /veh C5orf56 (11738089_at) / RFU CYB561 (11721691_x_at) / Fold change /veh CYB561 (11721691_x_at) / RFU ANKRD19P (11752326_a_at) / Fold change /veh ANKRD19P (11752326_a_at) / RFU OR2T12 /// OR2T33 /// OR2T8 (11738714_s_at) / Fold change /veh OR2T12 /// OR2T33 /// OR2T8 (11738714_s_at) / RFU VCAN (11748164_a_at) / Fold change /veh VCAN (11748164_a_at) / RFU JSRP1 (11732532_at) / Fold change /veh JSRP1 (11732532_at) / RFU KRTAP10-11 (11738290_x_at) / Fold change /veh KRTAP10-11 (11738290_x_at) / RFU MYO3A (11730013_a_at) / Fold change /veh MYO3A (11730013_a_at) / RFU EBF3 (11725865_a_at) / Fold change /veh EBF3 (11725865_a_at) / RFU CAMK2N1 (11719241_x_at) / Fold change /veh CAMK2N1 (11719241_x_at) / RFU C5orf56 (11738088_a_at) / Fold change /veh C5orf56 (11738088_a_at) / RFU OLFML3 (11715873_a_at) / Fold change /veh OLFML3 (11715873_a_at) / RFU LOC100653217 /// NTM (11731650_a_at) / Fold change /veh LOC100653217 /// NTM (11731650_a_at) / RFU MAPK11 (11762145_a_at) / Fold change /veh MAPK11 (11762145_a_at) / RFU FIZ1 (11724087_x_at) / Fold change /veh FIZ1 (11724087_x_at) / RFU OASL (11726364_x_at) / Fold change /veh OASL (11726364_x_at) / RFU SOX15 (11748057_x_at) / Fold change /veh SOX15 (11748057_x_at) / RFU CD79A (11719716_a_at) / Fold change /veh CD79A (11719716_a_at) / RFU HIST1H1D (11736915_at) / Fold change /veh HIST1H1D (11736915_at) / RFU CASKIN2 (11723855_a_at) / Fold change /veh CASKIN2 (11723855_a_at) / RFU LOC730098 (11760151_x_at) / Fold change /veh LOC730098 (11760151_x_at) / RFU OR4N2 (11742367_at) / Fold change /veh OR4N2 (11742367_at) / RFU PRRT2 (11749266_a_at) / Fold change /veh PRRT2 (11749266_a_at) / RFU SNX32 (11753110_a_at) / Fold change /veh SNX32 (11753110_a_at) / RFU CDHR5 (11726645_a_at) / Fold change /veh CDHR5 (11726645_a_at) / RFU RCAN1 (11760418_a_at) / Fold change /veh RCAN1 (11760418_a_at) / RFU FAM167A (11723789_a_at) / Fold change /veh FAM167A (11723789_a_at) / RFU FAM26E (11764081_at) / Fold change /veh FAM26E (11764081_at) / RFU ISYNA1 (11749810_s_at) / Fold change /veh ISYNA1 (11749810_s_at) / RFU ACY1 (11761880_at) / Fold change /veh ACY1 (11761880_at) / RFU 11764098_at / Fold change /veh 11764098_at / RFU SAMD14 (11745864_x_at) / Fold change /veh SAMD14 (11745864_x_at) / RFU NPB (11741838_a_at) / Fold change /veh NPB (11741838_a_at) / RFU TMPRSS6 (11731388_a_at) / Fold change /veh TMPRSS6 (11731388_a_at) / RFU KRTAP10-2 (11738614_at) / Fold change /veh KRTAP10-2 (11738614_at) / RFU ARHGAP8 /// PRR5-ARHGAP8 (11727945_x_at) / Fold change /veh ARHGAP8 /// PRR5-ARHGAP8 (11727945_x_at) / RFU KRTAP5-7 /// NADSYN1 (11734609_at) / Fold change /veh KRTAP5-7 /// NADSYN1 (11734609_at) / RFU RASL12 (11751679_a_at) / Fold change /veh RASL12 (11751679_a_at) / RFU CDKN2B (11736163_a_at) / Fold change /veh CDKN2B (11736163_a_at) / RFU PRF1 (11729649_at) / Fold change /veh PRF1 (11729649_at) / RFU, ZNF638 /// ZNF638-IT1 / Fold change vs veh, ZNF638 /// ZNF638-IT1 / RFU, PANK3 / Fold change vs veh, PANK3 / RFU, SH3YL1 / Fold change vs veh, SH3YL1 / RFU, ZEB2 / Fold change vs veh, ZEB2 / RFU, NRIP1 / Fold change vs veh, NRIP1 / RFU, PTTG1IP / Fold change vs veh, PTTG1IP / RFU, CAPN2 / Fold change vs veh, CAPN2 / RFU, MED14 / Fold change vs veh, MED14 / RFU, SNORA58 / Fold change vs veh, SNORA58 / RFU, C1orf63 / Fold change vs veh, C1orf63 / RFU, LRRFIP1 / Fold change vs veh, LRRFIP1 / RFU, NDUFAF7 / Fold change vs veh, NDUFAF7 / RFU, SLC12A2 / Fold change vs veh, SLC12A2 / RFU, IBTK / Fold change vs veh, IBTK / RFU, ESF1 / Fold change vs veh, ESF1 / Fold change vs veh, TMEM50B / RFU, TAOK1 / Fold change vs veh, TAOK1 / RFU, ACBD3 / Fold change vs veh, ACBD3 / RFU, TMA16 / Fold change vs veh, TMA16 / RFU, RWDD3 / Fold change vs veh, RWDD3 / RFU, BCAT1 / Fold change vs veh, BCAT1 / RFU, EDEM3 / Fold change vs veh, EDEM3 / RFU, TMEM33 / Fold change vs veh, TMEM33 / RFU, WDR75 / Fold change vs veh, WDR75 / RFU, AHCTF1 / Fold change vs veh, AHCTF1 / RFU, TFRC / Fold change vs veh, TFRC / RFU, ZDHHC17 / Fold change vs veh, ZDHHC17 / RFU, NOM1 / Fold change vs veh, NOM1 / RFU, ARL8B / Fold change vs veh, ARL8B / RFU, ZBTB11 / Fold change vs veh, ZBTB11 / RFU, TAMM41 / Fold change vs veh, TAMM41 / RFU, KIAA1704 /// LOC100996395 / Fold change vs veh, KIAA1704 /// LOC100996395 / RFU, ING1 / Fold change vs veh, ING1 / RFU, TRMT61B / Fold change vs veh, TRMT61B / RFU, FUBP3 / Fold change vs veh, FUBP3 / RFU, TP53 / Fold change vs veh, TP53 / RFU, TNKS2 / Fold change vs veh, TNKS2 / RFU, ZFP14 / Fold change vs veh, ZFP14 / RFU, ACTR2 / Fold change vs veh, ACTR2 / RFU, PPP3R1 / Fold change vs veh, PPP3R1 / RFU, PIK3R1 / Fold change vs veh, PIK3R1 / RFU, HNRNPA1 / Fold change vs veh, HNRNPA1 / RFU, RNF170 / Fold change vs veh, RNF170 / RFU, ZNF28 / Fold change vs veh, ZNF28 / RFU, RNGTT / Fold change vs veh, RNGTT / RFU, OGT / Fold change vs veh, OGT / RFU, BRD1 / Fold change vs veh, BRD1 / RFU, MARS / Fold change vs veh, MARS / RFU, ZNF655 / Fold change vs veh, ZNF655 / RFU, FAHD1 / Fold change vs veh, FAHD1 / RFU, BDP1 / Fold change vs veh, BDP1 / RFU, LRRCC1 / Fold change vs veh, LRRCC1 / RFU, ARID1A / Fold change vs veh, ARID1A / RFU, ZNF146 / Fold change vs veh, ZNF146 / RFU, ZNF330 / Fold change vs veh, ZNF330 / RFU, GPN3 / Fold change vs veh, GPN3 / RFU, C9orf123 / Fold change vs veh, C9orf123 / RFU, N4BP2L2 / Fold change vs veh, N4BP2L2 / RFU, ARFIP1 / Fold change vs veh, ARFIP1 / RFU, FAM179B / Fold change vs veh, FAM179B / RFU, BCL10 / Fold change vs veh, BCL10 / RFU, UHRF1BP1L / Fold change vs veh, UHRF1BP1L / RFU, BET1 / Fold change vs veh, BET1 / RFU, CNOT2 / Fold change vs veh, CNOT2 / RFU, ZNF268 / Fold change vs veh, ZNF268 / Fold change vs veh, ZNF507 / RFU, DGCR2 / Fold change vs veh, DGCR2 / RFU, WDSUB1 / Fold change vs veh, WDSUB1 / Fold change vs veh, HSP90B1 /// MIR3652 / RFU, ADSS / Fold change vs veh, ADSS / RFU, GK / Fold change vs veh, GK / RFU, ZNF148 / Fold change vs veh, ZNF148 / RFU, TAF9 / Fold change vs veh, TAF9 / RFU, SLC1A5 / Fold change vs veh, SLC1A5 / RFU, SLMO2 / Fold change vs veh, SLMO2 / RFU, ABCC4 / Fold change vs veh, ABCC4 / RFU, LOC101060439 /// RAP1B / Fold change vs veh, LOC101060439 /// RAP1B / RFU, RFX7 / Fold change vs veh, RFX7 / RFU, GTPBP10 / Fold change vs veh, GTPBP10 / RFU, CNEP1R1 / Fold change vs veh, CNEP1R1 / RFU, BIVM-ERCC5 /// ERCC5 / Fold change vs veh, BIVM-ERCC5 /// ERCC5 / RFU, ILF3 / Fold change vs veh, ILF3 / RFU 11762660_at / Fold change /veh 11762660_at / RFU VCAN (11757783_s_at) / Fold change /veh VCAN (11757783_s_at) / RFU DDX43 (11728927_at) / Fold change /veh DDX43 (11728927_at) / RFU KRT8 (11758188_x_at) / Fold change /veh KRT8 (11758188_x_at) / RFU NKD1 (11759106_at) / Fold change /veh NKD1 (11759106_at) / RFU SRD5A1 (11742802_a_at) / Fold change /veh SRD5A1 (11742802_a_at) / RFU TPSAB1 /// TPSB2 (11721975_s_at) / Fold change /veh TPSAB1 /// TPSB2 (11721975_s_at) / RFU GSTM3 (11746129_a_at) / Fold change /veh GSTM3 (11746129_a_at) / RFU IL23R (11737362_x_at) / Fold change /veh IL23R (11737362_x_at) / RFU TMEM51 (11727254_a_at) / Fold change /veh TMEM51 (11727254_a_at) / RFU PIWIL2 (11732686_x_at) / Fold change /veh PIWIL2 (11732686_x_at) / RFU ORM1 (11744905_x_at) / Fold change /veh ORM1 (11744905_x_at) / RFU CCDC152 (11743942_at) / Fold change /veh CCDC152 (11743942_at) / RFU ECM1 (11717891_a_at) / Fold change /veh ECM1 (11717891_a_at) / RFU IL23R (11748794_a_at) / Fold change /veh IL23R (11748794_a_at) / RFU TNFAIP8L3 (11732012_x_at) / Fold change /veh TNFAIP8L3 (11732012_x_at) / RFU MBOAT4 (11741988_at) / Fold change /veh MBOAT4 (11741988_at) / RFU 11764193_at / Fold change /veh 11764193_at / RFU TMEM53 (11763286_at) / Fold change /veh TMEM53 (11763286_at) / RFU MAGEB2 (11727129_at) / Fold change /veh MAGEB2 (11727129_at) / RFU TMEM200A (11744735_a_at) / Fold change /veh TMEM200A (11744735_a_at) / RFU CCDC152 (11751479_a_at) / Fold change /veh CCDC152 (11751479_a_at) / RFU FAM211A (11726209_a_at) / Fold change /veh FAM211A (11726209_a_at) / RFU RGS16 (11746705_a_at) / Fold change /veh RGS16 (11746705_a_at) / RFU VCAN (11755009_s_at) / Fold change /veh VCAN (11755009_s_at) / RFU RHOB (11743442_s_at) / Fold change /veh RHOB (11743442_s_at) / RFU RGS16 (11720943_a_at) / Fold change /veh RGS16 (11720943_a_at) / RFU RGS16 (11720944_at) / Fold change /veh RGS16 (11720944_at) / RFU, VPS4B / Fold change vs veh, VPS4B / RFU, CREB1 / Fold change vs veh, CREB1 / RFU, DNAJC13 / Fold change vs veh, DNAJC13 / RFU, GNAQ / Fold change vs veh, GNAQ / RFU, CDK5R1 / Fold change vs veh, CDK5R1 / RFU, ZRANB3 / Fold change vs veh, ZRANB3 / RFU, CUL4A / Fold change vs veh, CUL4A / RFU, CCNY / Fold change vs veh, CCNY / RFU, UFL1 / Fold change vs veh, UFL1 / RFU, COG3 / Fold change vs veh, COG3 / RFU, DIAPH2 / Fold change vs veh, DIAPH2 / RFU, SKA2 / Fold change vs veh, SKA2 / RFU, AFF3 / Fold change vs veh, AFF3 / RFU, LMF1 / Fold change vs veh, LMF1 / RFU, IPO11 / Fold change vs veh, IPO11 / RFU, DFFB / Fold change vs veh, DFFB / RFU, FOXP1 / Fold change vs veh, FOXP1 / RFU, CARD8 / Fold change vs veh, CARD8 / RFU, STRN3 / Fold change vs veh, STRN3 / RFU, ADK / Fold change vs veh, ADK / RFU, RASSF2 / Fold change vs veh, RASSF2 / RFU, WIPF1 / Fold change vs veh, WIPF1 / RFU, LARP1B / Fold change vs veh, LARP1B / RFU, RASA1 / Fold change vs veh, RASA1 / RFU, RB1 / Fold change vs veh, RB1 / RFU, PPFIA1 / Fold change vs veh, PPFIA1 / RFU, MAT2A / Fold change vs veh, MAT2A / RFU, CCT5 / Fold change vs veh, CCT5 / RFU, WDR92 / Fold change vs veh, WDR92 / RFU, CUX1 / Fold change vs veh, CUX1 / RFU, TTC7A / Fold change vs veh, TTC7A / RFU, TMEM135 / Fold change vs veh, TMEM135 / RFU, DEPTOR / Fold change vs veh, DEPTOR / RFU, CPM / Fold change vs veh, CPM / RFU, DNAJB6 / Fold change vs veh, DNAJB6 / RFU, CACNA2D3 / Fold change vs veh, CACNA2D3 / RFU, DTX4 / Fold change vs veh, DTX4 / RFU, TFCP2 / Fold change vs veh, TFCP2 / RFU, GMCL1 /// GMCL1P1 / Fold change vs veh, GMCL1 /// GMCL1P1 / RFU, AEBP2 / Fold change vs veh, AEBP2 / RFU, SNHG1 /// SNORD22 /// SNORD25 /// SNORD26 /// SNORD27 /// SNORD28 /// SNORD29 /// SNORD31 / Fold change vs veh, SNHG1 /// SNORD22 /// SNORD25 /// SNORD26 /// SNORD27 /// SNORD28 /// SNORD29 /// SNORD31 / Fold change (Aza/veh), C12orf56 (ProbeSet 11735607_a_at) / Fold change (ACY-1035/veh), C12orf56 (ProbeSet 11735607_a_at) / Fold change (Aza/veh), FGFR1OP (ProbeSet 11751329_s_at) / Fold change (ACY-1035/veh), FGFR1OP (ProbeSet 11751329_s_at) / Fold change (Aza/veh), VPS36 (ProbeSet 11739960_a_at) / Fold change (ACY-1035/veh), VPS36 (ProbeSet 11739960_a_at) / RFU SYPL1 (11715823_x_at) / Fold change /veh SYPL1 (11715823_x_at) / RFU IGFBP7 (11715501_s_at) / Fold change /veh IGFBP7 (11715501_s_at) / RFU REEP3 (11722064_at) / Fold change /veh REEP3 (11722064_at) / RFU IGLL1 (11728026_x_at) / Fold change /veh IGLL1 (11728026_x_at): dose or concentration left out as unconfirmed. The settings on record: ProbeSet 11746640_a_at; LIST D.

Turning to `Nc1ncn([C@@H]2O[C@H](CO)[C@@H](O)[C@H]2O)c(=O)n1` [azacitidine], the “RFU, RASSF2” value was determined as 35.94 RFU.
